Molecules are shown by their SMILES.

The experiment concerns HBV (HepG2.2.15 cells). Nature of the experiment: Anti-HBV activity experiment in vitro (HepG2.2.15, HBV DNA in supernatant, qPCR). The format is cell-based. As to conditions: Hepatitis B virus, HBV DNA in supernatant by qPCR, eighth day. On the procedure:
Compound Dilution: initial concentrations of all compounds used in the anti-HBV activity experiments in vitro were 1 μM, 3-fold diluted into 8 concentrations; initial concentrations of all compounds used in the cytotoxicity assay were 100 μM, 3-fold diluted into 8 concentrations; and the mother liquor of the compound was diluted with DMSO.
Anti-HBV Activity Experiment In Vitro: HepG2.2.15 cells (4×10^4 cells/well) were seeded in 96-well plates and cultured overnight at 37° C. in 5% CO2. The next day, fresh cultures containing compounds in different concentrations were added into the culture wells. On the fifth day, the old culture medium in the culture wells was aspirated and removed. Fresh medium containing compounds in different concentrations was added. On the eighth day, supernatants in the culture wells were collected and used to extract HBV DNA in the supernatant. qPCR assay was used to detect HBV DNA content in the HepG2.2.15 supernatant.
The data analysis and the percentage of inhibition calculation: the percentage of inhibition was calculated by using the following formula: Inhibition %=[(HBV amount in DMSO control−HBV amount in sample)/HBV amount in DMSO control]×100%.
Regarding `O=C1COC(c2cn(-c3ccc(Br)cc3)nc2-c2ccc(F)cc2)N1CCc1ccc2[nH]c(=S)[nH]c2c1` (stereo not shown) [example 5, 2-(1-(4-bromophenyl)-3-(4-fluorophenyl)-1H-pyrazol-4-yl)-3-(2-(2,3-dihydro-2-thio-1H-benzo[d]imidazol-5-yl)ethyl)oxazoline-4-one], the concentration for a half-maximal effect (EC50) is 45.7 nM.
In the case of `O=C1CO[C@H](c2cn(-c3ccc(Br)cc3)nc2-c2ccoc2)N1CCc1ccc2[nH]c(=O)[nH]c2c1` [example 21 R isomer, (R)-2-(1-(4-bromophenyl)-3-(furan-3-yl)-1H-pyrazol-4-yl)-3-(2-(2-oxo-2,3-dihydro-1H-benzo[d]imidazol-5-yl)ethyl)oxazolidin-4-one] it was 11 nM; in that of `O=C1COC(c2cn(-c3ccc(Br)cc3)nc2-c2ccc(F)cc2)N1CCc1c(F)cc2[nH]cnc2c1F` (stereo not shown) [example 10, 2-(1-(4-bromophenyl)-3-(4-fluorophenyl)1H-pyrazol-4-yl)-3-(2-(5,7-difluoro-1H-benzo[d]imidazol-6-yl)ethyl)oxazoline-4-one], 134 nM; in that of `O=C1CO[C@@H](c2cn(-c3ccc(F)cc3)nc2-c2ccc(F)cc2)N1CCc1ccc2[nH]c(=O)[nH]c2c1` [example 15 S isomer, (S)-3-(2-(2-oxo-2,3-dihydro-1H-benzo[d]imidazol-5-yl)ethyl)-2-(1-(4-fluorophenyl)-3-(4-fluorophenyl)-1H-pyrazol-4-yl)-oxazolidin-4-one], over 1000 nM.
With `O=C1CO[C@@H](c2cn(-c3ccc(Br)cc3)nc2-c2ccoc2)N1CCc1ccc2[nH]c(=O)[nH]c2c1` [example 21 S isomer, (S)-2-(1-(4-bromophenyl)-3-(furan-3-yl)-1H-pyrazol-4-yl)-3-(2-(2-oxo-2,3-dihydro-1H-benzo[d]imidazol-5-yl)ethyl)oxazolidin-4-one], the EC50 is over 1000 nM.
Regarding `O=C1COC(c2cn(-c3ccc(Br)cc3)nc2-c2ccoc2)N1CCc1ccc2[nH]c(=O)[nH]c2c1` (racemic) [example 21 racemate, 2-(1-(4-bromophenyl)-3-(furan-3-yl)-1H-pyrazol-4-yl)-3-(2-(2-oxo-2,3-dihydro-1H-benzo[d]imidazol-5-yl)ethyl)oxazolidin-4-one], the EC50 stood at 30.6 nM.
Consider `O=C1Cc2cc(CCN3C(=O)CO[C@@H]3c3cn(-c4ccc(Br)cc4)nc3-c3ccc(F)cc3)ccc2N1` [example 13 R isomer], for which the EC50 was 14.4 nM. This EC50 is about 2.1-fold lower than that of the compound before.
In the case of `O=C1COC(c2cn(-c3ccc(Br)cc3)nc2-c2ccc(F)cc2)N1CCc1ccc2sc(=O)[nH]c2c1` (stereo not shown) [example 19, 2-(1-(4-bromophenyl)-3-(4-fluorophenyl)-1H-pyrazol-4-yl)-3-(2-(2-oxo-2,3-dihydrobenzo[d]thiazol-5-yl)ethyl)oxazoline-4-one] it was 162 nM; in that of `O=C1COC(c2cn(-c3ccc(Br)cc3)nc2-c2ccc(F)cc2)N1CCc1ccc2[nH]cnc2c1` (stereo not shown) [example 1, 3-(2-(1H-benzo[d]imidazol-5-yl)ethyl)-2-(1-(4-bromophenyl)-3-(4-fluorophenyl)-1 H-pyrazol-4-yl)oxazoline-4-one], 50.3 nM; in that of `O=C1COC(c2cn(-c3ccc(Br)cc3)nc2-c2ccc(F)cc2)N1CCc1ccc2oc(=O)[nH]c2c1` (stereo not shown) [example 17], 150 nM.
In the case of `O=C1CO[C@H](c2cn(-c3ccc(Br)cc3)nc2-c2ccc(F)cc2)N1CCc1cc2[nH]c(=O)[nH]c2cc1F` [example 8 R isomer, (R)-2-(1-(4-bromophenyl)-3-(4-fluorophenyl)1H-pyrazol-4-yl)-3-(2-(6-fluoro-2-carbonyl-2,3-dihydro-1H-benzo[d]imidazol-5-yl)ethyl)oxazoline-4-one] it was 15.5 nM; in that of `O=C1COC(c2cn(-c3ccc(Br)cc3)nc2-c2ccsc2)N1CCc1ccc2[nH]c(=O)[nH]c2c1` (stereo not shown) [example 20, 2-(1-(4-bromophenyl)-3-(thiophene-3-yl)-1H-pyrazol-4-yl)-3-(2-(2-oxo-2,3-dihydro-1H-benzo[d]imidazol-5-yl)ethyl)oxazolidin-4-one], 20.9 nM; in that of `O=C1COC(c2cn(-c3ccc(Br)cc3)nc2-c2ccc(F)cc2)N1CCc1cc2[nH]c(=O)[nH]c2cc1F` (racemic) [example 8 racemate, 2-(1-(4-bromophenyl)-3-(4-fluorophenyl)11/-pyrazol-4-yl)-3-(2-(6-fluoro-2-carbonyl-2,3-dihydro-1H-benzo[d]imidazol-5-yl)ethyl)oxazoline-4-one], 35.5 nM.
In the case of `O=C1COC(c2cn(-c3ccc(Br)cc3)nc2-c2ccc(F)cc2)N1CCc1c(F)cc2[nH]nnc2c1F` (stereo not shown) [example 12, 2-(1-(4-bromophcnyl)-3-(4-fluorophenyl)-1H-pyrazol-4-yl)-3-(2-(5,7-difluoro-1H hydrogen-benzor[d][1,2,3]triazol-6-yl)ethyl)oxazoline-4-one] it was 223 nM.
On to `O=C1Cc2cc(CCN3C(=O)CO[C@H]3c3cn(-c4ccc(Br)cc4)nc3-c3ccc(F)cc3)ccc2N1` [example 13 S isomer], for which the EC50 was over 1000 nM.
For `O=C1COC(c2cn(-c3ccc(Br)cc3)nc2-c2ccc(F)cc2)N1CCc1ccc2c(c1)C(F)(F)C(=O)N2` (stereo not shown) [example 14] the value was over 1000 nM; for `N=c1[nH]c2ccc(CCN3C(=O)COC3c3cn(-c4ccc(Br)cc4)nc3-c3ccc(F)cc3)cc2[nH]1` (stereo not shown) [example 4, 3-(2-(2-amino-1H-benzo[d]imidazol-6-yl)ethyl)-2-(1-(4-bromophenyl)-3-(4-fluorophenyl)-1H-pyrazol-4-yl)oxazoline-4-one], over 1000 nM.
In turn, `O=C1COC(c2cn(-c3ccc(Br)cc3)nc2-c2ccc(F)cc2)N1CCc1cc2nn[nH]c2cc1F` (stereo not shown) [example 9, 3-(2-(5-fluoro-1H-benzo[d][1,2,3]triazol-6-yl)ethyl)-2-(1-(4-bromophenyl)-3-(4-fluorophenyl)-1H-pyrazol-4-yl)oxazoline-4-one] showed an EC50 of 234 nM.
For `O=C1COC(c2cn(-c3ccc(Br)cc3)nc2-c2ccc(F)cc2)N1CCc1cc2nc[nH]c2cc1F` (stereo not shown) [example 7, 2-(1-(4-bromophenyl)-3-(4-fluorophenyl)1H-pyrazol-4-yl)-3-(2-(5-fluoro-1H-benzo[d]imidazol-6-yl)ethyl)oxazoline-4-one] the value was 67.5 nM; for `O=C1COC(c2cn(-c3ccc(Br)cc3)nc2-c2ccco2)N1CCc1ccc2[nH]c(=O)[nH]c2c1` (stereo not shown) [example 22, 2-(1-(4-bromophenyl)-3-(furan-2-yl)-1H-pyrazol-4-yl)-3-(2-(2-oxo-2,3-dihydro-1H-benzo[d]imidazol-5-yl)ethyl)oxazolidin-4-one], 85.3 nM.
In turn, `O=C1COC(c2cn(-c3ccc(Br)cc3)nc2-c2ccc(F)cc2)N1CCc1ccc2[nH]c(=O)oc2c1` (stereo not shown) [example 16, 6-(2-{2-[1-(4-bromo-phenyl)-3-(4-fluoro-phenyl)-1-hydro-pyrazol-4-yl]-4-carbonyl-oxazoline-3-yl}-ethyl)-3-hydro-2-carbonyl-benzoxazole] returned an EC50 of 80.3 nM. This EC50 and that of the compound before are within 1.5-fold of each other.
For `O=C1CO[C@H](c2cn(-c3ccc(F)cc3)nc2-c2ccc(F)cc2)N1CCc1ccc2[nH]c(=O)[nH]c2c1` [example 15 R isomer, (R)-3-(2-(2-oxo-2,3-dihydro-1H-benzo[d]imidazol-5-yl)ethyl)-2-(1-(4-fluorophenyl)-3-(4-fluorophenyl)-1H-pyrazol-4-yl)-oxazolidin-4-one] the value was 44.5 nM.

The term EC50 denotes the concentration needed to bring the measured effect to its halfway point. A lower EC50 goes with greater potency.

The values above are taken from patent US10519145B2, “Pyrazole-oxazolidinone compound for anti-hepatitis B virus” (Shanghai Zhimeng Biopharma Co., Ltd., priority 2016, dated 2019).
